molecular target: CFTR (WT-CFTR channels stably expressed in CHO cells) (Homo sapiens (Human), UniProt P13569); assay: IonWorks Quattro CFTR inhibitor assay (whole-cell population patch clamp, forskolin-activated current); type: cell-based; settings: inward current (−100 mV); CHO cells stably expressing WT-CFTR; CFTR activated with 10 μM forskolin; 10 min compound incubation
Excerpt: CFTR activity can be quantified by electrophysiology methods, using the whole-cell configuration of the patch clamp technique (Hamill O, Marty A, Neher E, Sakmann B and Sigworth F. ‘Improved patch-clamp techniques for high resolution current recording from cells and cell-free membrane patches.’ Pflugers Archive 1981 391: 85-100). This assay directly measures the currents associated with chloride flow through CFTR channels whilst either maintaining or adjusting the transmembrane voltage. This assay can use either single glass micropipettes or parallel planar arrays to measure CFTR activity from native or recombinant cell systems. Currents measured using parallel planar arrays can be quantified using an appropriately equipped instrument such as the IonWorks Quattro (Molecular Devices Corporation, Sunnyvale, Calif.). The Quattro system can measure CFTR currents from either a single cell per recording well (HT configuration) or alternatively from a population of 64 cells per well (Population Patch Clamp PPC) (Finkel A, Wittel A, Yang N, Handran S, Hughes J, Costantin J. ‘Population patch clamp improves data consistency and success rates in the measurement of ionic currents.’ J Biomol Screen. 2006 August; 11(5):488-96).
Chinese hamster ovary (CHO) cells stably expressing WT-CFTR channels were used for the IonWorks Quattro experiments. Cells were maintained at 37° C. in 5% v/v CO2 at 100% humidity in MEM alpha medium supplemented with 10% (v/v) FCS, 100 U/mL Penicillin/Streptomycin, and 100 μg/L methotrexate. For experiments, cells were grown in 225 cm^2 tissue culture flasks until almost confluent. Cells were removed from the flask using trypsin-EDTA and resuspended in extracellular recording solution for immediate experimentation.
Cells, at a density of 1.5-2 million per mL, were placed on the Quattro system, added to the planar patch plate and seals allowed to establish for 5-10 mins. After assessing seal resistances (typically >50 MΩ), whole-cell access was obtained by perforation with 100 μg/mL amphotericin B. Baseline currents were measured by a pre-compound scan obtained by application of a voltage ramp from −100 to +100 mV. CFTR was activated by the addition of 10 μM forskolin to each of the 384 wells of the patch plate. After 5 min incubation the post-compound 1 currents were measured, again by application of a voltage ramp from −100 to +100 mV. Test compounds, diluted from 10 mM stocks in DMSO in extracellular solution were then added to the patch plate and were incubated for a further 10 min. The post-compound 2 currents were measured by the application of the same voltage ramp from −100 to +100 mV. The inhibition of CFTR was determined from the difference in current between the forskolin addition (post-compound 1) and the test compound (post-compound 2). This was determined at both −100 mV and +100 mV which represents the inward and outward current respectively.
Extracellular solution (ECS): 145 mM NaCl, 4 mM CsCl, 5 mM D-glucose, 10 mM TES, 1 mM CaCl2, 1 mM MgCl2, pH 7.4 NaOH
Intracellular solution (ICS): 113 mM L-Aspartic acid, 113 mM CsOH, 27 mM CsCl, 1 mM NaCl, 1 mM MgCl2, 1 mM EGTA, 10 mM TES. pH 7.2 with CsOH. Filter sterilized before use.

Sequence of CFTR (WT-CFTR channels stably expressed in CHO cells) (P13569 whole entry): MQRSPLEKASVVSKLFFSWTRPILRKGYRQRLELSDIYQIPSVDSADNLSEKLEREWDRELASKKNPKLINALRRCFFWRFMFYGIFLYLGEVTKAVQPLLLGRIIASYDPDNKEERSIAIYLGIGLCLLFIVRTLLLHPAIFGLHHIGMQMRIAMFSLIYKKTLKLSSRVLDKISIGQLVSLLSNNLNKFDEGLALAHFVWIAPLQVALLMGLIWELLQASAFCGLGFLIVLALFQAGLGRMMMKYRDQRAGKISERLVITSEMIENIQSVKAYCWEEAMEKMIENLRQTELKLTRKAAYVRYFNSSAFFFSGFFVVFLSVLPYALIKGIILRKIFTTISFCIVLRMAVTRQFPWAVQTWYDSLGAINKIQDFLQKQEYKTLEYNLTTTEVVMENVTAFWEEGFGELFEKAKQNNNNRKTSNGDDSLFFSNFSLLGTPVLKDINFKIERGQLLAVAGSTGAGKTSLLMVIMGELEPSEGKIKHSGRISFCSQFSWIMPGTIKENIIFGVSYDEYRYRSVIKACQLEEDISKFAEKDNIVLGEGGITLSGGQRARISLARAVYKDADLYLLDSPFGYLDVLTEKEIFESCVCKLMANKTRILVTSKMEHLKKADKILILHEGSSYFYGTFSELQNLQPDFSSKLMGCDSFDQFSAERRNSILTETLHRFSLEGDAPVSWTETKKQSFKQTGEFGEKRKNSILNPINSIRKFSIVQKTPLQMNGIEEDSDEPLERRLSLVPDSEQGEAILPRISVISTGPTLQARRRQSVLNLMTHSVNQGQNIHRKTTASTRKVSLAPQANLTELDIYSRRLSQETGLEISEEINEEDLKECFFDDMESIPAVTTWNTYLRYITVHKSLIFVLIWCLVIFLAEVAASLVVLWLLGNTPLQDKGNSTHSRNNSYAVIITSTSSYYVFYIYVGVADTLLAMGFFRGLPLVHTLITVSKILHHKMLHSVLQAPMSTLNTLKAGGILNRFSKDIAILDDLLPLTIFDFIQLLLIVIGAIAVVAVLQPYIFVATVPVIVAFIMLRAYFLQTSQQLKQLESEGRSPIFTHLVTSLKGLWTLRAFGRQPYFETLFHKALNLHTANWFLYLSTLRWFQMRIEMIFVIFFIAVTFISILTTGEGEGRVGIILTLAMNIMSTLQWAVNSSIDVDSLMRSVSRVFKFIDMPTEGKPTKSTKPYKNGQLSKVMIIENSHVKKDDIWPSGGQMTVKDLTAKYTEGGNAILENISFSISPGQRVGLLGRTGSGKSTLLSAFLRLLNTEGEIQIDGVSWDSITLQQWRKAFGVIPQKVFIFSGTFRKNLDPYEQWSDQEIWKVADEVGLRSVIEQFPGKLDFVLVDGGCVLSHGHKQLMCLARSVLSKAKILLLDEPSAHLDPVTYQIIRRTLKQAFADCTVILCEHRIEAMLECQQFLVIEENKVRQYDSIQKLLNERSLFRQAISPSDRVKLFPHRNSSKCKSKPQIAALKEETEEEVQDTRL

Compound	IC50 [µM]
Cc1ccc(C2NCCn3c(-c4ccccc4)c4c(=O)n(C)c(=O)n(C)c4c32)o1 (racemic) [Example 1.1, 1,3-Dimethyl-10-(5-methylfuran-2-yl)-5-phenyl-7,8,9,10-tetrahydropyrazino[1′,2′:1,2]pyrrolo[3,4-d]pyrimidine-2,4(1H,3H)-dione]	4.64
Cc1ccc(C2OCCn3c(-c4ccccc4)c4c(=O)n(C)c(=O)n(C)c4c32)o1 (racemic) [Example 4.1, 1,3-Dimethyl-10-(5-methylfuran-2-yl)-5-phenyl-7,8-dihydro-1H-pyrimido[4′,5′:3,4]pyrrolo[2,1-c][1,4]oxazine-2,4(3H,10H)-dione]	4.23
Cc1ccc([C@H]2NCCn3c(-c4ccccc4)c4c(=O)n(C)c(=O)n(C)c4c32)o1 (single isomer, unassigned) [Example 1.3]	> 30
Cn1c(=O)c2c(-c3ccccc3)n3c(c2n(C)c1=O)C(c1nc(C(F)(F)F)cs1)NCC3 (single isomer, unassigned) [Example 2.4, 1,3-Dimethyl-5-phenyl-10-(4-(trifluoromethyl)thiazol-2-yl)-7,8,9,10-tetrahydropyrazino[1′,2′:1,2]pyrrolo[3,4-d]pyrimidine-2,4(1H,3H)-dione]	4.98
Cn1c(=O)c2c(-c3ccccc3)n3c(c2n(C)c1=O)C(C1CCCCC1)NCC3 (single isomer, unassigned) [Example 2.6, 10-Cyclohexyl-1,3-dimethyl-5-phenyl-7,8,9,10-tetrahydropyrazino[1′,2′:1,2]pyrrolo[3,4-d]pyrimidine-2,4(1H,3H)-dione]	7.62
Cn1c(=O)c2c(-c3cccc(C#N)c3)n3c(c2n(C)c1=O)C(c1ccc(Cl)o1)NCC3 (single isomer, unassigned) [Example 2.9, 3-(10-(5-chlorofuran-2-yl)-1,3-dimethyl-2,4-dioxo-1,2,3,4,7,8,9,10-octahydropyrazino[1′,2′:1,2]pyrrolo[3,4-d]pyrimidin-5-yl)benzonitrile]	0.59
Cc1ccc(C2OCCn3c(-c4ccccc4)c4c(=O)n(C)c(=O)n(C)c4c32)o1 (single isomer, unassigned) [Example 4.2, 1,3-dimethyl-10-(5-methylfuran-2-yl)-5-phenyl-7,8-dihydro-1H-pyrimido[4′,5′:3,4]pyrrolo[2,1-c][1,4]oxazine-2,4(3H,10H)-dione]	> 30
Cc1ccc(C2OCCn3c(-c4ccccc4)c4c(=O)n(C)c(=O)n(C)c4c32)o1 (single isomer, unassigned) [Example 4.3, 1,3-dimethyl-10-(5-methylfuran-2-yl)-5-phenyl-7,8-dihydro-1H-pyrimido[4′,5′:3,4]pyrrolo[2,1-c][1,4]oxazine-2,4(3H,10H)-dione]	3.16
Cn1c(=O)c2c(-c3nc(CO)cs3)n3c(c2n(C)c1=O)C(c1ccc(Cl)o1)O[C@@H](CO)C3 (single isomer, unassigned) [Example 7.1a, 10-(5-Chlorofuran-2-yl)-8-(hydroxymethyl)-5-(4-(hydroxymethyl)thiazol-2-yl)-1,3-dimethyl-7,8-dihydro-1H-pyrimido[4′,5′:3,4]pyrrolo[2,1-c][1,4]oxazine-2,4(3H,10H)-dione]	0.61
Cn1c(=O)c2c(-c3cccc(C#N)c3)n3c(c2n(C)c1=O)[C@@H](c1nc(Cl)cs1)O[C@H](CO)C3 (single isomer, unassigned) [Example 9b, 3-(10-(4-Chlorothiazol-2-yl)-8-(hydroxymethyl)-1,3-dimethyl-2,4-dioxo-2,3,4,7,8,10-hexahydro-1H-pyrimido[4′,5′:3,4]pyrrolo[2,1-c][1,4]oxazin-5-yl)benzonitrile]	8.06
Cn1c(=O)c2c(-c3cccc(C#N)c3)n3c(c2n(C)c1=O)[C@H](c1ccc(Cl)o1)O[C@@H](CO)C3 (stereo in doubt) [Example 6.1, 3-(10-(5-chlorofuran-2-yl)-8-(hydroxymethyl)-1,3-dimethyl-2,4-dioxo-2,3,4,7,8,10-hexahydro-1H-pyrimido[4′,5′:3,4]pyrrolo[2,1-c][1,4]oxazin-5-yl)benzonitrile]	0.24
Cc1csc(-c2c3c(=O)n(C)c(=O)n(C)c3c3n2C[C@H](CO)O[C@H]3c2ccc(Cl)o2)n1 (stereo in doubt) [Example 7.0a, 10-(5-chlorofuran-2-yl)-8-(hydroxymethyl)-1,3-dimethyl-5-(4-methylthiazol-2-yl)-7,8-dihydro-1H-pyrimido[4′,5′:3,4]pyrrolo[2,1-c][1,4]oxazine-2,4(3H,10H)-dione]	0.09
Cn1c(=O)c2c(-c3cccc(Cl)c3)n3c(c2n(C)c1=O)[C@H](c1nc(Cl)cs1)O[C@@H](CO)C3 (stereo in doubt) [Example 8.0a, 5-(3-Chlorophenyl)-10-(4-chlorothiazol-2-yl)-8-(hydroxymethyl)-1,3-dimethyl-7,8-dihydro-1H-pyrimido[4′,5′:3,4]pyrrolo[2,1-c][1,4]oxazine-2,4(3H,10H)-dione]	0.07
Cn1c(=O)c2c(-c3cccc(Cl)c3)n3c(c2n(C)c1=O)[C@H](c1ccc(Cl)o1)O[C@@H](CO)C3 (stereo in doubt) [Example 8.1a, 10-(5-Chlorofuran-2-yl)-5-(3-chlorophenyl)-8-(hydroxymethyl)-1,3-dimethyl-7,8-dihydro-1H-pyrimido[4′,5′:3,4]pyrrolo[2,1-c][1,4]oxazine-2,4(3H,10H)-dione]	0.12
Cc1cccc(-c2c3c(=O)n(C)c(=O)n(C)c3c3n2C[C@H](C)O[C@H]3c2ccc(Cl)o2)c1 (stereo in doubt) [Example 12.1, 10-(5-chlorofuran-2-yl)-1,3,8-trimethyl-5-(m-tolyl)-7,8-dihydro-1H-pyrimido[4′,5′:3,4]pyrrolo[2,1-c][1,4]oxazine-2,4(3H,10H)-dione]	5.07
COC[C@@H]1Cn2c(-c3cccc(Cl)c3)c3c(=O)n(C)c(=O)n(C)c3c2[C@H](c2ccc(Cl)o2)O1 (stereo in doubt) [Example 12.2, 10-(5-chlorofuran-2-yl)-5-(3-chlorophenyl)-8-(methoxymethyl)-1,3-dimethyl-7,8-dihydro-1H-pyrimido[4′,5′:3,4]pyrrolo[2,1-c][1,4]oxazine-2,4(3H,10H)-dione]	0.24
CN(C)C[C@@H]1Cn2c(-c3cccc(Cl)c3)c3c(=O)n(C)c(=O)n(C)c3c2[C@H](c2ccc(Cl)o2)O1 (stereo in doubt) [Example 12.4, 10-(5-chlorofuran-2-yl)-5-(3-chlorophenyl)-8-((dimethylamino)methyl)-1,3-dimethyl-7,8-dihydro-1H-pyrimido[4′,5′:3,4]pyrrolo[2,1-c][1,4]oxazine-2,4(3H,10H)-dione]	0.54
Cc1ccc([C@@H]2NCCn3c(-c4ccccc4)c4c(=O)n(C)c(=O)n(C)c4c32)o1 [Example 1.2, (R)-1,3-Dimethyl-10-(5-methylfuran-2-yl)-5-phenyl-7,8,9,10-tetrahydropyrazino[1′,2′:1,2]pyrrolo[3,4-d]pyrimidine-2,4(1H,3H)-dione]	1.58
Cn1c(=O)c2c(-c3ccccc3)n3c(c2n(C)c1=O)C(c1nccs1)NCC3 (stereo not shown) [Example 1.7, 1,3-Dimethyl-5-phenyl-10-(thiazol-2-yl)-7,8,9,10-tetrahydropyrazino[1′,2′:1,2]pyrrolo[3,4-d]pyrimidine-2,4(1H,3H)-dione]	5.42
Cn1c(=O)c2c(-c3ccccc3)n3c(c2n(C)c1=O)C(c1nc(C(F)(F)F)cs1)NCC3 (stereo not shown) [Example 1.9, 1,3-Dimethyl-5-phenyl-10-(4-(trifluoromethyl)thiazol-2-yl)-7,8,9,10-tetrahydropyrazino[1′,2′:1,2]pyrrolo[3,4-d]pyrimidine-2,4(1H,3H)-dione]	6.31
CCc1ccc(C2NCCn3c(-c4ccccc4)c4c(=O)n(C)c(=O)n(C)c4c32)o1 (stereo not shown) [Example 1.10, 10-(5-Ethylfuran-2-yl)-1,3-dimethyl-5-phenyl-7,8,9,10-tetrahydropyrazino[1′,2′:1,2]pyrrolo[3,4-d]pyrimidine-2,4(1H,3H)-dione]	6.37
Cn1ccc(C2NCCn3c(-c4ccccc4)c4c(=O)n(C)c(=O)n(C)c4c32)n1 (stereo not shown) [Example 1.12, 1,3-Dimethyl-10-(1-methyl-1H-pyrazol-3-yl)-5-phenyl-7,8,9,10-tetrahydropyrazino[1′,2′:1,2]pyrrolo[3,4-d]pyrimidine-2,4(1H,3H)-dione]	10.8

Reference: US9303035B2, “Substituted pyrazino[1′,2′:1,2]pyrrolo[3,4-d]pyrimidines, pyrimido[4′,5′:3,4]pyrrolo[2,1-c][1,4]oxazines and pyrimido[4′,5′:3,4]pyrrolo[1,2-d][1,4]oxazepines for inhibiting the CFTR channel” (Novartis AG, priority 2012, dated 2016)
